Key:
[1] = biological target: Dual specificity tyrosine-phosphorylation-regulated kinase 1A (Homo sapiens, UniProt Q13627); test: Residual activity of DYRK1A (unknown origin) at 10 nM using Ulight-MBP as substrate and ATP as co-substrate incubated for 40 mins and measured after 1 hr by TR-FRET assay relative to control; conditions: time 100.0 min
A2780 [2] = test: Antitumor activity against human A2780 cells xenografted in BALB/c nu/nu mouse assessed as reduction in DYRK1A autophosphorylation of S520 residue at 4.687 mg/kg, po measured after 2 hrs by western blotting analysis relative to control; format: functional; design: scale not given: the % may be the effect or the level left
A2780 [3] = test: Antitumor activity against human A2780 cells xenografted in BALB/c […] mouse assessed as reduction in DYRK1A autophosphorylation of S520 residue at 75 mg/kg, po measured after 6 hrs by western blotting analysis relative to control; format: functional; design: scale not given: the % may be the effect or the level left
RS4-11 [4] = test: Antitumor activity against human RS4-11 cells xenografted in BALB/c nu/nu mouse assessed as reduction in DYRK1A autophosphorylation of S520 residue at 25 mg/kg, po measured after 2 hrs by western blotting analysis relative to control; format: functional; design: scale not given: the % may be the effect or the level left
RS4-11 [5] = test: Antitumor activity against human RS4-11 cells xenografted in BALB/c nu/nu mouse reduction in DYRK1A autophosphorylation of S520 residue at 6.25 mg/kg, po measured after 6 hrs by western blotting analysis relative to control; format: functional; design: scale not given: the % may be the effect or the level left
A2780 [6] = test: Antitumour activity against human A2780 cells xenografted in Balb/c mouse assessed as tumor volume T/C at 18.75 mg/kg, po bid for 14 days relative to control; conditions: time 14 day
hERG (KCNH2) = hERG (KCNH2) (Homo sapiens, UniProt Q12809); test: Inhibition of hERG at 10 uM by patch clamp method relative to control; format: toxicity
A2780 [7] = test: Antitumor activity against human A2780 cells xenografted in Balb/c mouse assessed as tumor volume T/C at 4.75 mg/kg, po bid for 14 days relative to control; conditions: time 14 day
A2780 [8] = test: Antitumor activity against human A2780 cells xenografted in BALB/c nu/nu mouse assessed as reduction in DYRK1A autophosphorylation of S520 residue at 18.75 mg/kg, po measured after 2 hrs by western blotting analysis relative to control; format: functional; design: scale not given: the % may be the effect or the level left
A2780 [9] = test: Antitumor activity against human A2780 cells xenografted in Balb/c mouse assessed as tumor volume T/C at 75 mg/kg, po bid for 14 days relative to control; conditions: time 14 day
[10] = biological target: Ribosomal protein S6 kinase alpha-4 (Homo sapiens) (UniProt O75676); test: Residual activity of RPS6KA4 (unknown origin) at 10 nM using Ulight-MBP as substrate and ATP as co-substrate incubated for 40 mins and measured after 1 hr by TR-FRET assay relative to control; conditions: time 100.0 min
A2780 [11] = test: Antitumor activity against human A2780 cells xenografted in Balb/c mouse assessed as inhibition of tumor growth at 4.75 mg/kg, po bid for 14 days relative to control; format: functional; conditions: 336 h, time 14 day, read-out: TGI
[12] = biological target: Dual specificity protein kinase CLK4 (Homo sapiens) (UniProt Q9HAZ1); test: Residual activity of CLK4 (unknown origin) at 10 nM using Ulight-MBP as substrate and ATP as co-substrate incubated for 40 mins and measured after 1 hr by TR-FRET assay relative to control; conditions: time 100.0 min
[13] = biological target: Dual specificity tyrosine-phosphorylation-regulated kinase 1B (Homo sapiens) (UniProt Q9Y463); test: Residual activity of DYRK1B (unknown origin) at 10 nM using Ulight-MBP as substrate and ATP as co-substrate incubated for 40 mins and measured after 1 hr by TR-FRET assay relative to control; conditions: time 100.0 min
A2780 [14] = test: Antitumor activity against human A2780 cells xenografted in BALB/c […] mouse assessed as reduction in DYRK1A autophosphorylation of S520 residue at 37.5 mg/kg, po measured after 6 hrs by western blotting analysis relative to control; format: functional; design: scale not given: the % may be the effect or the level left
[15] = Toxicity in Balb/c nude mouse xenografted with human A2780 cells assessed as decrease in body weight at 37.5 mg/kg, po bid for 14 days relative to control; format: organism-based; design: scale not given: the % may be the effect or the level left; conditions: in vivo, 336 h, time 14 day
A2780 [16] = test: Antitumor activity against human A2780 cells xenografted in Balb/c mouse assessed as inhibition of tumor growth at 18.75 mg/kg, po bid for 14 days relative to control; format: functional; conditions: 336 h, time 14 day, read-out: TGI
RS4-11 [17] = test: Antitumor activity against human RS4-11 cells xenografted in BALB/c nu/nu mouse assessed as reduction in DYRK1A autophosphorylation of S520 residue at 12.5 mg/kg, po measured after 2 hrs by western blotting analysis relative to control; format: functional; design: scale not given: the % may be the effect or the level left
[18] = Toxicity in Balb/c nude mouse xenografted with human A2780 cells assessed as decrease in body weight at 75 mg/kg, po bid for 14 days relative to control; format: organism-based; design: scale not given: the % may be the effect or the level left; conditions: in vivo, 336 h, time 14 day
SK-N-MC = test: cells; conditions: Homo sapiens, 120 h
[19] = biological target: Dual specificity protein kinase CLK2 (Homo sapiens) (UniProt P49760); test: Residual activity of CLK2 (unknown origin) at 10 nM using Ulight-MBP as substrate and ATP as co-substrate incubated for 40 mins and measured after 1 hr by TR-FRET assay relative to control; conditions: time 100.0 min
[20] = Oral bioavailability in BALB/c nu/nu mouse at 3 mg/kg; format: ADME, organism-based; conditions: in vivo
A2780 [21] = test: Antitumor activity against human A2780 cells xenografted in BALB/c nu/nu mouse assessed as reduction in DYRK1A autophosphorylation of S520 residue at 9.375 mg/kg, po measured after 2 hrs by western blotting analysis relative to control; format: functional; design: scale not given: the % may be the effect or the level left

Ribosomal protein S6 kinase alpha-4 (Homo sapiens), sequence (O75676 whole entry, looked up): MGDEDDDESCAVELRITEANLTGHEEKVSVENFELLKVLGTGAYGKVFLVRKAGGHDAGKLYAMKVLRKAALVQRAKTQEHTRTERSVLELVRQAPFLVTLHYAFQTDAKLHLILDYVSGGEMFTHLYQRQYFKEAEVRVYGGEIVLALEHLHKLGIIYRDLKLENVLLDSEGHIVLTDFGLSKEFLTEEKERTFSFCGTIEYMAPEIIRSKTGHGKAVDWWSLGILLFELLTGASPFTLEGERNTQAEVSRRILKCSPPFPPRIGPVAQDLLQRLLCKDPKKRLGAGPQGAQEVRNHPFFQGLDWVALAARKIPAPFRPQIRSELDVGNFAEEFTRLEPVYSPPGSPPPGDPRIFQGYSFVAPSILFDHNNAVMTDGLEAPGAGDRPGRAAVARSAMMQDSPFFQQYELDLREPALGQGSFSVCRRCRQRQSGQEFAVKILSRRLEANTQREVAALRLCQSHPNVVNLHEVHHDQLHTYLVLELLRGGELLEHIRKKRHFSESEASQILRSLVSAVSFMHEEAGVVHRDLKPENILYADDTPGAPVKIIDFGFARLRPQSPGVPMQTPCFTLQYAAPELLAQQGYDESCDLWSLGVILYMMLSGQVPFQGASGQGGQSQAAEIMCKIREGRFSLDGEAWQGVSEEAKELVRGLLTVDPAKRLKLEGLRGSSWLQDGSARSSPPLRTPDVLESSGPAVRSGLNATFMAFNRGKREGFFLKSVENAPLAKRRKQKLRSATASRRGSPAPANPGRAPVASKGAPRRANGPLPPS
Dual specificity protein kinase CLK2 (Homo sapiens), sequence (P49760 whole entry, looked up): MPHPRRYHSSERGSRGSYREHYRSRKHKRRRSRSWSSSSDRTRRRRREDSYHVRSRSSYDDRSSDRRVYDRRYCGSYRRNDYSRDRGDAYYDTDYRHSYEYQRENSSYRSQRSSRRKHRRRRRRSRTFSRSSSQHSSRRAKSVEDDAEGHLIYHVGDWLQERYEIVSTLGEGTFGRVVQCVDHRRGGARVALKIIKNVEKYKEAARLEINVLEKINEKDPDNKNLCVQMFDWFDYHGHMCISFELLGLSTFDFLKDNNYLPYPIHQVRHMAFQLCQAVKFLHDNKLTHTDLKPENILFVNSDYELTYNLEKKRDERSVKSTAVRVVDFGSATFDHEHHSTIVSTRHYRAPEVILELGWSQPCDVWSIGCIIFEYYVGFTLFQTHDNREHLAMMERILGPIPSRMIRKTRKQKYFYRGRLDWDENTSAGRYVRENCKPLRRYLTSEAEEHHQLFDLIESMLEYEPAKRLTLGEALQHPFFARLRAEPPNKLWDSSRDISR
Dual specificity tyrosine-phosphorylation-regulated kinase 1B (Homo sapiens), sequence (Q9Y463 whole entry, looked up): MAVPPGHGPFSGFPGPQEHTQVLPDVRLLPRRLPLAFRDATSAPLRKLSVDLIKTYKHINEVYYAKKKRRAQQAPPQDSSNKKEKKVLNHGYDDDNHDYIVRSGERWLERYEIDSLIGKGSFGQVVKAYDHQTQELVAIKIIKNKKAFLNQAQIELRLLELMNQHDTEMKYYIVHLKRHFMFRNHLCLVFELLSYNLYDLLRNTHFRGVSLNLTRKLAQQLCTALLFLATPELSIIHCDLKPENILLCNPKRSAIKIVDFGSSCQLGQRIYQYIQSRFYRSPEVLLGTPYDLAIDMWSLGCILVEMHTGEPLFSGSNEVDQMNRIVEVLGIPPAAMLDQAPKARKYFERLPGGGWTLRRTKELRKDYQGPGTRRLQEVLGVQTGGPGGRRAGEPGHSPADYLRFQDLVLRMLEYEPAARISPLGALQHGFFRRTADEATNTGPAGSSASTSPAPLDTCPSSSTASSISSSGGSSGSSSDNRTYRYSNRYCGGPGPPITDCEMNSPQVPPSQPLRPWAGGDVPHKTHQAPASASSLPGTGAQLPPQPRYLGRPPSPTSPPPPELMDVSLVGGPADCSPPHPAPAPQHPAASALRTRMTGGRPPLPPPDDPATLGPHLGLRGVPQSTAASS
Dual specificity protein kinase CLK4 (Homo sapiens), sequence (Q9HAZ1 whole entry, looked up): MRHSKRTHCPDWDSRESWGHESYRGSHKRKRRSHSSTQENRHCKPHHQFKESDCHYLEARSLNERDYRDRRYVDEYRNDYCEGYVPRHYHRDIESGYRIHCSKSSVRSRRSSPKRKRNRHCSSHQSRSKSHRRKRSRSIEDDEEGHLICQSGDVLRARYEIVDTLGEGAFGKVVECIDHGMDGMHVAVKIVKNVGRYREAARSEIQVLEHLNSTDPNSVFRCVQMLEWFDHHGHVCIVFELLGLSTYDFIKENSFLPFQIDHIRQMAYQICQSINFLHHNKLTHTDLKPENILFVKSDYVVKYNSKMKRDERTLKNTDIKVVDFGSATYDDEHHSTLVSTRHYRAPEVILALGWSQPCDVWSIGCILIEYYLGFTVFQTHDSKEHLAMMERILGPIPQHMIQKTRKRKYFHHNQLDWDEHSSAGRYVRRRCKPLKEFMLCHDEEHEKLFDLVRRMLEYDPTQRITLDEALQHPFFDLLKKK
hERG (KCNH2), sequence (Q12809 whole entry): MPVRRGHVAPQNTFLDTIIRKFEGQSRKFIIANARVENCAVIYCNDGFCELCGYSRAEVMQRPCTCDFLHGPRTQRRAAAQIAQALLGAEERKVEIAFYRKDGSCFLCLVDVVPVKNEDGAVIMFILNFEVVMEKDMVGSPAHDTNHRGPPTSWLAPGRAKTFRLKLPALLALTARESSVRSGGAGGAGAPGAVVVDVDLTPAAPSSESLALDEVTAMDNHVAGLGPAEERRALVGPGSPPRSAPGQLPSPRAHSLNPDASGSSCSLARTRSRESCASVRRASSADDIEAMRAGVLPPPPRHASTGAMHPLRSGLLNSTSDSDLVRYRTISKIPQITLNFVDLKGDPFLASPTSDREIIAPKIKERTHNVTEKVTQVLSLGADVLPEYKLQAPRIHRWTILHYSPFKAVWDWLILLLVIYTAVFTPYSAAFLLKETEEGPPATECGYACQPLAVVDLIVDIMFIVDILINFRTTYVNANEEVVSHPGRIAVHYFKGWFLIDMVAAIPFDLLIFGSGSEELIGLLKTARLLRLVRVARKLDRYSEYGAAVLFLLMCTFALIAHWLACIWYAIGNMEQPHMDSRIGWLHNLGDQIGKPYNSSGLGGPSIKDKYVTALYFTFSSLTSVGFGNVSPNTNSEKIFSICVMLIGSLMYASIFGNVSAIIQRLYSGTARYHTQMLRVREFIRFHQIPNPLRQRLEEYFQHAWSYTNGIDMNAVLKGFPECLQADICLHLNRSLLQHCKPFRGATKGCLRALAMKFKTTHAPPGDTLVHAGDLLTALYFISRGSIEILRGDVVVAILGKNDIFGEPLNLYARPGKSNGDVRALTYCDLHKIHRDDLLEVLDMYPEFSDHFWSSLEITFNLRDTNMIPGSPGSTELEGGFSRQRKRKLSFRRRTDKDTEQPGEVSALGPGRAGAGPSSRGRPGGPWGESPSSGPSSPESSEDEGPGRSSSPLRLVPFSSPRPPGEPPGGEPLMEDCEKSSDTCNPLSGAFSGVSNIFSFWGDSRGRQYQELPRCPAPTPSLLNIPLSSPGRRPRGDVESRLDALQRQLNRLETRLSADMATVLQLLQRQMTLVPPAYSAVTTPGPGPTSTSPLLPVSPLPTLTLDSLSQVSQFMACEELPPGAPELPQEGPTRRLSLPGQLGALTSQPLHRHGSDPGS

Question: What does the source list for `Cc1nc2ccc(-c3cc(N)nc(N)c3)nc2n1C1CC1`?
Answer: residual activity [1]: 9.2%; Activity (A2780 [2]): 60%; Activity (A2780 [3]): 92%; Activity (RS4-11 [4]): 87%; Activity (RS4-11 [5]): 25%; T/C (A2780 [6]): 63%; inhibition at 10 µM (hERG (KCNH2)): 52%; T/C (A2780 [7]): 91%; Activity (A2780 [8]): 82%; T/C (A2780 [9]): 24%; residual activity [10]: 61%; inhibition in vivo at 4.75 mg/kg (A2780 [11]): 28%; residual activity [12]: 52%; residual activity [13]: 20%; Activity (A2780 [14]): 95%; Activity [15]: 9.7%; inhibition in vivo at 18.75 mg/kg (A2780 [16]): 55%; Activity (RS4-11 [17]): 87%; Activity [18]: 16.3%; IC50 (SK-N-MC): 0.958 µM; residual activity [19]: 40%; bioavailability [20]: 39%; Activity (A2780 [21]): 60%

Source: ChEMBL document CHEMBL5042474, “Structure-Guided Discovery of Potent and Selective DYRK1A Inhibitors” (J Med Chem, 2021)
